What all share (type): cell-based
The subject of assay [1] is MiaPaca2 (pancreas) human tumor cell line. Put plainly: three day MTT cytotoxicity assay, MiaPaca2 pancreas. The note with it: MiaPaca2 pancreas cells, 72 hours. On the procedure: (§1) A number of the Flavopereirine derivatives were tested for cytotoxicity against nine (9) human tumor cell lines. Briefly, a three day MTT cytotoxicity assay was performed, which is based on the principle of uptake of MTT (3-(4,5-dimethylthiazol-2-yl)-2,5-diphenyl tetrazolium bromide), a tetrazolium salt, by the metabolically active cells where it is metabolized by active mitochondria into a blue colored formazan product that is read spectrophotometrically. MIT was dissolved in phosphate buffered saline with a pH of 7.4 to obtain an MTT concentration of 5 mg/ml; the resulting mixture was filtered through a 0.22-micron filter to sterilize and remove a small amount of insoluble residue. For each type of tumor cell, 10000 to 15000 cells were seeded in a 96-well culture plate and incubated with the individual Flavopereirine derivatives in concentration ranging from 1-20 μg/ml in a CO2 incubator for a total of 72 hours. Control cells not treated with the Flavopereirine derivatives were similarly incubated. The assay was terminated by adding 100 μg (20 μl) of MTT to each well, then incubating for additional one hour, and finally adding 50 μl of 10% SDS-0.01N HCl to each well to lyse the cells and dissolve formazan. After incubating for one hour, the plate was read spectrophotometrically at 540 nm and the percentage of cytotoxicity calculated using the following formula:
(§2) Cytotoxicity percentage=100×[1-(X/R1)], where X=(absorbance of treated sample at 540 nm)−(absorbance of blank at 540 nm) R1=absorbance of control sample at 540 nm.
(§3) The IC50 Values of the cytotoxicity defined as the concentration at which 50% of the cells are killed in vitro was calculated for each cell line treated with each of the Flavopereirine derivatives.
(§4) The cell lines are ovary (PA-1), breast (MCF-7), prostate (DU145), pancreas (MiaPaCa.2), oral cavity (KB), lung (L132), colon (SW620), and larynx (HeP2).

Assay [2] relates to ECV-304 (endothelial) cell line. The assay is described as follows: three day MTT cytotoxicity assay, ECV-304 endothelial. The note with it: ECV-304 endothelial cells, 72 hours. On the procedure:
as §1, §2, §3

The test system of assay [3] is MCF7 (breast) human tumor cell line. Put plainly: three day MTT cytotoxicity assay, MCF7 breast. The note with it: MCF7 breast cells, 72 hours. As for the experimental part:
as §1, §2, §3, §4
A general note: Formazan colour is commonly taken as a measure of viable cells.

In assay [4] the test system is Hep2 (larynx) human tumor cell line. The assay is described as follows: three day MTT cytotoxicity assay, Hep2 larynx. The note with it: Hep2 larynx cells, 72 hours. As for the experimental part:
as §1, §2, §3, §4

Assay [5] has as its system KB (oral cavity) human tumor cell line. The assay is described as follows: three day MTT cytotoxicity assay, KB oral. The note with it: KB oral cells, 72 hours. On the procedure:
as §1, §2, §3, §4

The subject of assay [6] is PA1 (ovary) human tumor cell line. The assay is described as follows: three day MTT cytotoxicity assay, PA1 ovarian. Conditions: PA1 ovarian cells, 72 hours. As for the experimental part:
as §1, §2, §3, §4

Assay [7] deals with L132 (lung) human tumor cell line. Put plainly: three day MTT cytotoxicity assay, L132 lung. The note with it: L132 lung cells, 72 hours. As for the experimental part:
as §1, §2, §3, §4

The test system of assay [8] is SW620 (colon) human tumor cell line. The assay is described as follows: three day MTT cytotoxicity assay, SW620 colon. The note with it: SW620 colon cells, 72 hours. As for the experimental part: as §1, §2, §3, §4
Assay [9] deals with DU145 (prostate) human tumor cell line. The assay is described as follows: three day MTT cytotoxicity assay, DU145 prostate. The note with it: DU145 prostate cells, 72 hours. As for the experimental part: as §1, §2, §3, §4

For `[Br-].c1ccc(COc2ccc3c4[nH]c5ccccc5c4cc[n+]3c2)cc1` [Compound 31], in assay [1], the “IC50 (μg/mL) of Flavoperereine derivatives in human tumor cell lines, MiaPaca2 Pancreas” value was below 1 µg/mL. Also, in assay [2], the “IC50 (μg/mL) of Flavoperereine derivatives in human tumor cell lines, ECV-304 Endothelial” value was determined as 13.5 µg/mL. Besides, the “IC50 (μg/mL) of Flavoperereine derivatives in human tumor cell lines, MCF7 Breast” value in assay [3] was determined as 4 µg/mL. In addition, in assay [4], the “IC50 (μg/mL) of Flavoperereine derivatives in human tumor cell lines, Hep2 Larynx” value amounted to 3 µg/mL. Also, the “IC50 (μg/mL) of Flavoperereine derivatives in human tumor cell lines, KB Oral” value in assay [5] is below 1 µg/mL. Also, in [6], the “IC50 (μg/mL) of Flavoperereine derivatives in human tumor cell lines, PA1 Ovarian” value is 4 µg/mL. Moreover, in [7], the “IC50 (μg/mL) of Flavoperereine derivatives in human tumor cell lines, L132 Lung” value came out at 4.5 µg/mL. Besides, in assay [8], the “IC50 (μg/mL) of Flavoperereine derivatives in human tumor cell lines, SW620 Colon” value is 5 µg/mL. The “IC50 (μg/mL) of Flavoperereine derivatives in human tumor cell lines, DU145 Prostate” value in [9] was determined as 4.5 µg/mL.

Take `Fc1ccc(COc2ccc3c4[nH]c5ccccc5c4cc[n+]3c2)cc1.[O-][Cl+3]([O-])([O-])[O-]` [Compound 32]: the “IC50 (μg/mL) of Flavoperereine derivatives in human tumor cell lines, MiaPaca2 Pancreas” value in assay [1] was below 1 µg/mL. In [2], the “IC50 (μg/mL) of Flavoperereine derivatives in human tumor cell lines, ECV-304 Endothelial” value was 24 µg/mL. Also, the “IC50 (μg/mL) of Flavoperereine derivatives in human tumor cell lines, MCF7 Breast” value in assay [3] was below 1 µg/mL. Besides, the “IC50 (μg/mL) of Flavoperereine derivatives in human tumor cell lines, Hep2 Larynx” value in assay [4] was determined as 4 µg/mL. In assay [5], the “IC50 (μg/mL) of Flavoperereine derivatives in human tumor cell lines, KB Oral” value is below 1 µg/mL. Further, the “IC50 (μg/mL) of Flavoperereine derivatives in human tumor cell lines, PA1 Ovarian” value in assay [6] came out at 6 µg/mL. The “IC50 (μg/mL) of Flavoperereine derivatives in human tumor cell lines, L132 Lung” value in [7] was below 1 µg/mL. Also, the “IC50 (μg/mL) of Flavoperereine derivatives in human tumor cell lines, SW620 Colon” value in assay [8] amounted to 5 µg/mL. Also, the “IC50 (μg/mL) of Flavoperereine derivatives in human tumor cell lines, DU145 Prostate” value in [9] was found to be 2 µg/mL.
